Measurements: patent US8361965B2, “Recombinant chimeric protein of neutrophil inhibitory factor and hirugen, and pharmaceutical composition thereof” (Lunan Pharmaceutical Group Corporation, priority 2008, dated 2013)

Tests used:
[1] = system: blood coagulation system; assay: effects on blood coagulation system of New Zealand rabbits in vivo (APTT, PT, TT); parameters: species or system New Zealand rabbit; PT: unit not given beside the values; APTT / TT: unit not given here
Protocol: Medicaments were administrated via intravenous injection from marginal ear vein, and 1.8 ml blood was harvested from marginal ear veins at the time of before administration (0 min), and 10 min, 30 min, 60 min, 120 min and 240 min after administration, respectively (the time for injecting is 2 min). 3.2% sodium citrate (9:1) was added for anticoagulation and then mixed and centrifuged at 3000 rpm/min for 3 min. The plasma was send to Department of Clinical Laboratory, Southwest Hospital for determining blood coagulation indexes (APTT, TT and PT) with a full automatic coagulation analyzer and the difference before and after administration was obtained by comparison.

[2] = system: blood coagulation system; assay: effects on blood coagulation system of New Zealand rabbits in vitro (APTT, PT, TT); type: biochemical, New Zealand rabbit; parameters: PT: unit not given beside the values; APTT / TT: unit not given here
Protocol: Medicaments were diluted to the following concentrations for use: TNHH: 3.0 mg/ml; 1.0 mg/ml; 333 μg/ml; bivalrudin: 600 μg/ml; 200 μg/ml; 67 μg/ml; Hirudin: 660 μg/ml; 220 μg/ml; 73 μg/ml.
The blood was sampled from six New Zealand rabbits (10×1.8 ml for each one) from marginal ear vein and added into 10 anticoagulation tubes, respectively. 3.2% sodium citrate (9:1) was added for anticoagulation.
20 μl anticoagulated blood was taken from each tube, followed by the addition of 20 μl above diluted medicaments for each tube. 20 μl physiological saline was added into the control tube. Samples were mixed thoroughly and centrifuged at 3000 rpm/min for 3 min, and plasma was send to Department of Clinical Laboratory, Southwest Hospital for determining blood coagulation indexes (APTT, TT and PT) with a full automatic coagulation analyzer and the difference before and after administration was obtained by comparison.

[3] = system: leukocyte adhesion; assay: anti-leukocyte adhesion activity, in vitro comparative analysis; type: cell-based; conditions: in vitro
[4] = system: rabbit whole blood; assay: in vitro whole blood anticoagulation assay; parameters: species or system white rabbit; conditions: 0.2 ml heparin sodium 1 mg/ml + 1.0 ml rabbit blood; room temperature 15 min
Protocol: TNHH was diluted to 4 mg/ml, 2 mg/ml, 1 mg/ml, 0.5 mg/ml respectively with phosphate buffer solution (10 mmol/L PB, 0.15 mol/L NaCl, pH7.4). Heparin sodium was prepared to 1 mg/ml with the same buffer solution.
Venous blood was taken from marginal ear vein of the rabbit, and rapidly added into 0#-5# tubes. 0.2 ml of the diluted TNHH samples with different concentrations was added into the 1#-4# tubes, respectively. 0.2 ml phosphate buffer solution was added into the 0# tube, which was used as a negative control. 0.2 ml heparin sodium (1 mg/ml) was added into the 5# tube, which was used as a positive control. The reagents were mixed rapidly and stored at room temperature for 15 min for observing the results.

[5] = system: platelet aggregation induced by human thrombin; assay: antiplatelet aggregation assay (rabbits dosed i.v., thrombin-induced aggregation of PRP); type: in vivo, Japanese Giant Ear White Rabbits
Protocol: Platelet aggregation rate was determined by puncture of the central artery of the ear before administration, and then rabbits were randomly divided into 5 groups (4 in each group) based on the platelet aggregation rate and body weight: (1) negative control group (5.12 mg mannitol/kg), (2) high dose TNHH group (4.0 mg/kg), (3) middle dose TNHH group (2.0 mg/kg), (4) low dose TNHH group (1.0 mg/kg), and (5) positive control group (0.1 mg recombinant hirudin/kg). The rabbits in each group were administered at the dose respectively via intravenous injection from the marginal ear vein. Blood samples were collected at the time of 15 min after administration (timed by stopwatch) by puncture of the central artery of the ear to determine the platelet aggregation rate. The method of platelet aggregation rate determination was described as follows: the blood samples were collected by puncture of the central artery of the ear using silicified syringe. 3.8% anticoagulant sodium citrate solution (blood: anticoagulant=9:1) was used. The sample was centrifuged at 200×g for 8 min, and the supernatant obtained was platelet-rich plasma (PRP); then the remaining part was centrifuged again at 2200×g for 10 min, and the supernatant obtained was platelet-poor plasma (PPP). The platelet in PRP was counted as approximate 4.0×10^5/mm^3. According to Born's turbidimetry, a turbidimetric tube with 200 μl PRP and a small magnetic bar was placed in a platelet aggregation instrument and incubated at 37 for 1 min. After calibrating with PPP, the platelet was induced to aggregate by adding inductive human thrombin (0.76 IU/ml) under stirring. The effect of medicaments on the aggregation of platelet was analyzed using the aggregation curve and the maximum aggregation rate obtained from the instrument. The maximum aggregation rate was calculated according to the formula below: […]

[6] = Bivalrudin 1.50 mg/kg i.v., 0 min (before administration)
[7] = Bivalrudin 1.50 mg/kg i.v., 10 min
[8] = Bivalrudin 1.50 mg/kg i.v., 30 min
[9] = Bivalrudin 1.50 mg/kg i.v., 60 min
[10] = Bivalrudin 1.50 mg/kg i.v., 120 min
[11] = Bivalrudin 1.50 mg/kg i.v., 240 min
[12] = bivalrudin 0.67 μg/ml in rabbit blood
[13] = bivalrudin 2.00 μg/ml in rabbit blood
[14] = bivalrudin 6.00 μg/ml in rabbit blood
[15] = Hirudin 0.50 mg/kg i.v., 0 min (before administration)
[16] = Hirudin 0.50 mg/kg i.v., 10 min
[17] = Hirudin 0.50 mg/kg i.v., 30 min
[18] = Hirudin 0.50 mg/kg i.v., 60 min
[19] = Hirudin 0.50 mg/kg i.v., 120 min
[20] = Hirudin 0.50 mg/kg i.v., 240 min
[21] = hirudin 0.73 μg/ml in rabbit blood
[22] = hirudin 2.20 μg/ml in rabbit blood
[23] = hirudin 6.60 μg/ml in rabbit blood

Question: What does the source list for “Bivalrudin: lyophilized powder for injection, manufactured by Chengdu Jiexun Biotechnical Co., Ltd. [reference compound]”?
Answer: APTT [1, 6]: 40.7 ± 5.77; PT [1, 6]: 6.87 ± 0.21; TT [1, 6]: 15.28 ± 1.60; APTT [1, 7]: 45.75 ± 7.20; PT [1, 7]: 8.27 ± 0.67; TT [1, 7]: 71.18 ± 23.37; APTT [1, 8]: 39.33 ± 6.62; PT [1, 8]: 7.40 ± 0.27; TT [1, 8]: 36.12 ± 14.00; APTT [1, 9]: 38.03 ± 5.55; PT [1, 9]: 7.10 ± 0.15; TT [1, 9]: 26.68 ± 7.30; APTT [1, 10]: 32.68 ± 4.77; PT [1, 10]: 7.02 ± 0.12; TT [1, 10]: 15.40 ± 2.16; APTT [1, 11]: 34.57 ± 5.56; PT [1, 11]: 6.90 ± 0.18; TT [1, 11]: 15.50 ± 2.36; APTT [2, 12]: 35.12 ± 8.04; PT [2, 12]: 7.83 ± 0.39; TT [2, 12]: 43.22 ± 8.13; APTT [2, 13]: 40.75 ± 8.71; PT [2, 13]: 8.75 ± 0.52; TT [2, 13]: 53.67 ± 9.03; APTT [2, 14]: 55.00 ± 12.4; PT [2, 14]: 11.08 ± 1.20; TT [2, 14]: 85.38 ± 23.07

Question: For “Hirogen: artificial dodecapeptide based on the C-terminal 53rd-64th amino acids of hirudin (NGDFEEIPEEYL) (not fully specified) [reference compound]”, which anti-leukocyte adhesion activity [3] is on record?
Answer: none

Question: Which “Test results (blood coagulation)” value [4] does the source give for heparin sodium [reference compound] here?
Answer: not coagulated and Non-

Question: With hirudin [reference compound] as the molecule, how does the “aggregation ratio, Before administration” value ([5]; hirudin 0.1 mg/kg group) read?
Answer: 58.44 ± 4.42%

Question: And the “aggregation ratio, 15 min after administration” value ([5]; hirudin 0.1 mg/kg i.v.)?
Answer: 4.34 ± 6.88%

Question: What about the “aggregation ratio, difference” value ([5]; hirudin 0.1 mg/kg i.v., before vs 15 min after) of the same molecule?
Answer: 54.09 ± 8.69 %

Question: What about the APTT [1, 15] of the same molecule?
Answer: 38.02 ± 6.54

Question: And the PT [1, 15]?
Answer: 6.80 ± 0.28

Question: What about the TT [1, 15] of the same molecule?
Answer: 16.40 ± 1.73

Question: What about the APTT [1, 16] of the same molecule?
Answer: 39.97 ± 5.69

Question: And the PT [1, 16]?
Answer: 7.27 ± 0.22

Question: What about the TT [1, 16] of the same molecule?
Answer: 112.70

Question: And the APTT [1, 17]?
Answer: 37.72 ± 5.55

Question: And the PT [1, 17]?
Answer: 7.01 ± 0.31

Question: And the TT [1, 17]?
Answer: 84.93 ± 49.24

Question: And the APTT [1, 18]?
Answer: 35.02 ± 7.59

Question: And the PT [1, 18]?
Answer: 6.95 ± 0.34

Question: What about the TT [1, 18] of the same molecule?
Answer: 58.17 ± 33.19

Question: What about the APTT [1, 19] of the same molecule?
Answer: 32.05 ± 5.69

Question: What about the PT [1, 19] of the same molecule?
Answer: 6.97 ± 0.27

Question: What about the TT [1, 19] of the same molecule?
Answer: 30.42 ± 17.09

Question: What about the APTT [1, 20] of the same molecule?
Answer: 32.07 ± 5.97

Question: And the PT [1, 20]?
Answer: 7.08 ± 0.26

Question: And the TT [1, 20]?
Answer: 16.30 ± 2.32

Question: And the APTT [2, 21]?
Answer: 37.47 ± 6.15

Question: What about the PT [2, 21] of the same molecule?
Answer: 7.33 ± 0.33

Question: What about the TT [2, 21] of the same molecule?
Answer: 50.40 ± 8.19

Question: And the APTT [2, 22]?
Answer: 52.85 ± 15.88

Question: What about the PT [2, 22] of the same molecule?
Answer: 7.87 ± 0.37

Question: What about the TT [2, 22] of the same molecule?
Answer: 102.77 ± 21.90

Question: What about the APTT [2, 23] of the same molecule?
Answer: 58.43 ± 14.36

Question: And the PT [2, 23]?
Answer: 9.37 ± 1.30

Question: And the TT [2, 23]?
Answer: 116.40 ± 8.82

B1: TNHH-G15/n3: recombinant TNHH with linker 1 (Gly)15 and linker 2 (GSGG)3: NIF-(Gly)15-FPRP-(GSGG)3-hirugen (protein)
chain: MNEHNLRCPQNGTEMPGFNDSIRLQFLAMHNGYRSKLALGHISITEESESDDDDDFGFLPDFAPRASKMRYLEYDCEAEKSAYMSARNCSDSSSPPEGYDENKYIFENSNNISEAALKAMISWAKEAFNLNKTKEGEGVLYRSNHDISNFANLAWDAREKFGCAVVNCPLGEIDDETNHDGETYATTIHVVCHYPKINKTEGQPIYKVGTPCDDCSEYTKKADNTTSADPVCIPDDGVCFIGSKADYDSKEFYRFRELGGGGGGGGGGGGGGGFPRPGSGGGSGGGSGGNGDFEEIPEEYL
Question: How did the anti-leukocyte adhesion activity [3] turn out when B1 was run?
Answer: 740 Unit/mg
